Drawing on PubChem BioAssay (NCI), this text covers TGI and GI50 for 22 compounds.

What all share (experiment): NCI anticancer screen, dose series, 48 h
In assay [1] the test system is HOP-62 NSCLC.
Assay [2] relates to HCT-116 colon.
The subject of assay [3] is COLO 205 colon.
Assay [4] deals with NCI-H460 lung.
In assay [5] the test system is SK-MEL-28 melanoma.
Assay [6] relates to HCT-15 colon.
Assay [7] has as its system SK-OV-3 ovarian.
In assay [8] the test system is OVCAR-4 ovarian.
Assay [9] relates to OVCAR-3 ovarian.
Assay [10] concerns SNB-75 CNS.

Several values for one entry are separate records, joined by “and”; a condition that tells them apart may be missing. Equal values may be shown once.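 Assay format: 96-well plates, 48-hour exposure. GI50: concentration for 50% inhibition of growth. TGI: total growth inhibition.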

For `CN(C)CCNC(=O)Cn1ccc(=O)c2ccc([N+](=O)[O-])cc21`, the TGI in assay [1], in assay [2], in assay [3], in assay [4], in assay [5] and in [6] was more than 100 µM each time. Further, the TGI in [7], in assay [8] and in assay [9] was more than 100 µM in each case.
Regarding `CC(=O)OC1CCC2(C)C(CCC3C4CC=C(C(C)=O)C4(C)OC(=O)CC32)C1` (stereo not drawn), the GI50 was 4.06 µM in [1]; 1.13 µM in assay [2]; 1.64 µM in assay [3]; 5.02 µM in assay [4]; 1.74 µM in assay [5]; 1.13 µM in assay [6]. The values for the GI50 in assay [7], in [8] and in [9] were 11.1 µM, 1.7 µM and 1.63 µM, respectively. Besides, the TGI in assay [1] amounted to 14.7 µM; in assay [2], 2.62 µM; in [3] it was 3.02 µM; in assay [4], 19.3 µM; in [5] it was 3.27 µM; in [6], 2.61 µM. Also, the TGI was determined as 23.1 µM in assay [7], 3.31 µM in assay [8] and 3.04 µM in assay [9].
In the case of `COc1ccc(/C=C/C(=O)c2ccc3cc(OC)c(OC)cc3c2)cc1OC`, the GI50 is 3.92 µM in assay [1]; 2.64 µM in assay [2]; 4.1 µM in assay [3]; 3.35 µM in [4]; 11.2 µM in assay [5]; 2.69 µM in assay [6]. Besides, the GI50 in [7] is 4.41 µM; in [8] it was 3.5 µM; in assay [9], 3.2 µM. Also, the TGI in [1] was 22.1 µM; in assay [2] it was more than 100 µM; in assay [3], 13.2 µM; in assay [4], 12.5 µM; in assay [5], 32.3 µM; in assay [6], 40.8 µM. Further, the TGI was determined as 83.5 µM in [7], 36.7 µM in assay [8] and 13.5 µM in [9].
As for `O=C(O)C[O][Sb][O]CC(=O)O`, the GI50 in assay [1], in assay [2], in assay [4], in [10], in [5] and in [6] was more than 100 µM in each case. In addition, the GI50 in assay [8] and in assay [9] was more than 100 µM in each case. The TGI in assay [1], in assay [2], in [4], in assay [10], in assay [5] and in [6] was more than 100 µM in each case. The TGI in [8] and in [9] was more than 100 µM throughout.
On to `COc1c(NC(=O)CC(C)=O)[c]([Hg][O]C(C)=O)c(OC)c(Cl)[c]1[Hg][O]C(C)=O`, for which the GI50 in assay [1] was 20.2 µM; in [2], 15.2 µM; in assay [4] it was 21.3 µM; in assay [10] it was 9.69 µM; in assay [5], 11.3 µM; in assay [6], 14 µM. The GI50 in [7] was 17.2 µM; in [8], 14.5 µM; in assay [9] it was 13.3 µM. The TGI in assay [1] amounted to 36.6 µM; in assay [2] it was 31.8 µM; in assay [4], 49.9 µM; in assay [10], 29.5 µM; in assay [5] it was 23.9 µM; in assay [6], 28.8 µM. In addition, the values for the TGI in assay [7], in assay [8] and in assay [9] were 31.1 µM, 35.7 µM and 26 µM, respectively.
Regarding `COc1cc(/C=C/c2ccc(OC(C)=O)cc2)cc(OC)c1OC`, the TGI in assay [1] was more than 100 µM; in assay [2], more than 100 µM; in assay [3] it was 67.2 µM; in assay [4], 91.6 µM; in assay [5], more than 100 µM; in assay [6] it was more than 100 µM. Besides, the TGI was more than 100 µM in [8] and 68.2 µM in [9].
As for `CCCCCCCCCC1C(C)c2c([nH]c3ccccc23)C2C(=O)N(c3ccccc3)C(=O)C21` (stereo not drawn), the TGI in [1] was 31.2 µM; in assay [2], 10.2 µM; in assay [4], 13.7 µM; in assay [10], 26.9 µM; in assay [5] it was 4.7 µM; in assay [6], 23 µM. The figures for the TGI in [7], in assay [8] and in assay [9] were 33.5 µM, 19.1 µM and 10.8 µM, respectively.
As for `COc1cc2c(c(OC)c1OC)-c1ccc(SC)c(=O)cc1[C@@H](NCc1cccc(C#N)c1)CC2`, the GI50 in assay [1], in assay [2], in [3], in assay [6] and in assay [7] was less than 0.0075 µM throughout. Besides, the TGI in [1] was more than 75 µM; in assay [3], 0.0593 µM and < 0.0075 µM; in assay [4] it was 8.97 µM; in assay [10], 0.0568 µM; in assay [8], more than 75 µM; in assay [9], 0.0493 µM.
Take `CC(C)(C)OC(=O)NC1CCC[C@H]1O` (stereo partly drawn): the TGI in assay [1], in [2], in assay [4], in assay [10], in assay [5] and in assay [7] was more than 100 µM throughout. Also, the TGI in [8] and in assay [9] was more than 100 µM each time.
Consider `CCc1ccc(Nc2cc(=O)[nH]c(=S)n2C)cc1`, for which the TGI in assay [1], in [2], in assay [3], in [4], in [10] and in assay [6] was more than 100 µM in each case. Besides, the TGI in assay [7], in assay [8] and in [9] was more than 100 µM in each case.
Consider `Cc1ncc(C(=O)Nc2ccc(CN3CCN(C)CC3)c(C(F)(F)F)c2)cc1C#Cc1cnc(N)c2ncccc12`, for which the GI50 in assay [1] is 0.704 µM; in assay [2] it was 0.218 µM; in [3] it was 0.0424 µM; in assay [4], 0.0869 µM; in assay [10], 0.3 µM; in assay [5], 0.056 µM. In addition, the GI50 in assay [6] is 0.0752 µM; in assay [7], 0.341 µM; in assay [9] it was 1.32 µM. The TGI in [1] is 11.9 µM; in assay [2], 2.4 µM; in assay [3] it was 1.61 µM; in assay [4], 2.15 µM; in assay [10], 2.26 µM; in assay [5], 1.49 µM. In addition, the TGI in assay [6] amounted to 1.79 µM; in [7] it was 7.2 µM; in assay [9] it was 4.96 µM.
`Cc1ccc2c(Nc3cccc(Cl)c3F)ncc(NC(=O)c3csc4c(N)ncnc34)c2c1`: the GI50 was 0.359 µM in [1]; 0.0961 µM in assay [2]; 0.0492 µM in [3]; more than 100 µM in assay [4]; more than 100 µM in assay [10]; more than 100 µM in assay [6]. The GI50 in assay [7], in [8] and in assay [9] was more than 100 µM in each case. The TGI in assay [1], in assay [2], in [3], in assay [4], in [10] and in assay [6] was more than 100 µM in each case. For the same compound, the TGI in assay [7], in assay [8] and in assay [9] was more than 100 µM throughout.
Consider `Cc1cccc(NC(=O)CCl)c1`, for which the TGI in assay [1], in [2], in assay [3], in [4], in assay [5] and in [6] was more than 10 µM each time. For the same compound, the TGI in assay [7] is more than 10 µM; in [8], 8.18 µM; in assay [9] it was more than 10 µM.
Turning to `CC[C@H](C)[C@H](NC(=O)Nc1ccccc1)C(=O)N(C)[C@H](C[C@@H](OC(C)=O)c1nc(C(=O)N[C@@H](Cc2ccccc2)C[C@H](C)C(=O)OC)cs1)C(C)C`, the GI50 in assay [1] was 3.66 µM; in [2] it was 3.33 µM; in [3], 3.17 µM; in [4], 2.83 µM; in assay [5] it was more than 100 µM; in assay [6], 3.58 µM. The GI50 was 5.13 µM in [7], 6.06 µM in assay [8] and 2.32 µM in [9]. Further, the TGI was more than 100 µM in assay [1]; more than 100 µM in assay [2]; 18.2 µM in assay [3]; more than 100 µM in assay [4]; more than 100 µM in assay [5]; more than 100 µM in [6]. The TGI was more than 100 µM in assay [7], more than 100 µM in assay [8] and 5.96 µM in [9].
`CC1=CC2=C(C(N)=O)C(=O)OC2(C)C(c2ccccc2)C1` (stereo not drawn): the TGI in [1], in [2], in assay [4], in [10], in assay [5] and in assay [6] was more than 100 µM each time. Besides, the TGI in assay [7], in [8] and in assay [9] was more than 100 µM throughout.
In the case of `Nc1ccc2c(c1)CC1c3ccccc3C(C2)c2ccccc21`, the TGI in assay [1], in assay [2], in [3], in [4], in [10] and in assay [6] was more than 100 µM each time. The TGI in assay [7] and in assay [8] was more than 100 µM in each case.
Consider `Nc1nc(N)c(N=O)c(Nc2ccc(I)cc2)n1`, for which the TGI in [1] was 51.1 µM; in assay [2], 43.5 µM; in assay [3], 33.2 µM; in assay [4] it was more than 100 µM; in [5] it was 52.3 µM; in assay [6], 96.7 µM. Besides, the TGI was determined as 39.2 µM in [7] and 43.7 µM in assay [9].
Regarding `O=C1c2cc3c(cc2[C@@H]2[C@H]1c1ccc([N+](=O)[O-])cc1C(=O)N2CCCCl)OCO3`, the GI50 was less than 0.01 µM in assay [1]; less than 0.01 µM in [2]; less than 0.0131 µM in assay [3]; less than 0.01 µM in [4]; less than 0.0253 µM in assay [10]; less than 0.0145 µM in assay [6]. The figures for the GI50 in [7], in assay [8] and in assay [9] were less than 0.027 µM, 0.151 µM and 0.073 µM, respectively. In addition, the TGI in assay [2] was 15.7 µM; in assay [3], more than 100 µM; in assay [4], 13.6 µM; in assay [10], more than 100 µM; in assay [6], more than 40.6 µM; in [8] it was more than 100 µM. The TGI in assay [9] was 0.456 µM.
With `N#CCN1CCOCCOCCN(CC#N)CCOCCOCC1`, the TGI in [1], in [2], in assay [3], in [4], in assay [10] and in [5] was more than 100 µM in each case. Moreover, the TGI in assay [6], in assay [8] and in [9] was more than 100 µM throughout.
For the compound `CCOC(=O)C(Cc1ccccc1)NC(=O)OC(C)(C)C` (stereo not drawn), the TGI in assay [1], in [2], in assay [3], in assay [4], in assay [10] and in assay [5] was more than 100 µM in each case. Moreover, the TGI in assay [6], in assay [7] and in assay [9] was more than 100 µM throughout.
Regarding `C#C[C@@]1(O)[C@@H](CO)O[C@@H](n2ccc3c(N)ncnc32)[C@@H]1O`, the GI50 in assay [1] was 2.05 µM; in assay [2], 0.595 µM; in assay [3], 0.679 µM; in [4] it was 0.473 µM; in assay [5], 3.99 µM; in assay [6], 0.892 µM. Besides, the GI50 in assay [7] is 1.07 µM; in assay [8] it was 1.97 µM; in [9], 2.96 µM. In addition, the TGI was found to be 7.91 µM in assay [1]; 10.8 µM in assay [2]; 2.67 µM in assay [3]; 10.6 µM in assay [4]; 20.2 µM in [5]; 4.62 µM in [6]. Also, the TGI stood at 5.24 µM in assay [7], 7.79 µM in assay [8] and 12 µM in [9].
As to `O=C1[C@@H]2C3SC(c4ccccc43)[C@@H]2C(=O)N1c1ccccc1`, the TGI in assay [1] was more than 100 µM; in [2] it was more than 100 µM; in [3], more than 100 µM; in assay [4], more than 100 µM; in assay [10], more than 83 µM; in assay [5] it was more than 100 µM. Also, the TGI in [6], in assay [7] and in assay [9] was more than 100 µM each time.
